Patent US20060069132A1, “Azolecarboxamide herbicides” (priority 2004, published 2006)

Experiments:
[1] = system: barnyardgrass; assay: Test A pre-/postemergence herbicide test; format: in vivo, Echinochloa crus-galli
Outline: (§1)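 Sandy loam soil given preemergence directed spray; plants at 2 to 10 cm, one- to two-leaf stage, sprayed to runoff postemergence, compounds in non-phytotoxic solvent with surfactant. Injury rated visually versus untreated controls after about ten greenhouse days, 0 (no effect) to 100 (complete control); dash means not tested.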

[2] = system: large crabgrass; assay: Test A pre-/postemergence herbicide test; format: in vivo, Digitaria sanguinalis
Outline: as §1

[3] = system: giant foxtail; assay: Test A pre-/postemergence herbicide test; format: in vivo, Setaria faberi
Outline: as §1

[4] = system: morningglory; assay: Test A pre-/postemergence herbicide test; format: in vivo, Ipomoea spp.
Outline: as §1

[5] = system: redroot pigweed; assay: Test A pre-/postemergence herbicide test; format: in vivo, Amaranthus retroflexus
Outline: as §1

[6] = system: velvetleaf; assay: Test A pre-/postemergence herbicide test; format: in vivo, Abutilon theophrasti
Outline: as §1

[7] = system: barnyardgrass; assay: Test B pre-/postemergence herbicide test; format: in vivo, Echinochloa crus-galli
Outline: (§2)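 Test chemicals in a non-phytotoxic solvent mixture with surfactant were applied preemergence to seeded species and postemergence to plants 2-18 cm tall (1- to 4-leaf stage); rice and barnyardgrass were also tested in a flooded paddy at the 2-leaf stage. Visual rating versus controls after 13-15 days in greenhouse, scale 0 (no effect) to 100 (complete control).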

[8] = system: Surinam grass; assay: Test B pre-/postemergence herbicide test; format: in vivo, Urochloa decumbens
Outline: (§3)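 Flooded paddy rice and barnyardgrass were treated at the 2-leaf stage; upland plantings received compound either on sown seed or on 1- to 4-leaf seedlings. All were kept 13–15 days in a greenhouse and scored visually, 0–100, relative to untreated plants.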

[9] = system: cocklebur; assay: Test B pre-/postemergence herbicide test; format: in vivo, Xanthium strumarium
Outline: as §2

[10] = system: corn; assay: Test B pre-/postemergence herbicide test; format: in vivo, Zea mays
Outline: as §3

[11] = system: large crabgrass; assay: Test B pre-/postemergence herbicide test; format: in vivo, Digitaria sanguinalis
Outline: as §3

[12] = system: giant foxtail; assay: Test B pre-/postemergence herbicide test; format: in vivo, Setaria faberi
Outline: as §3

[13] = system: lambsquarters; assay: Test B pre-/postemergence herbicide test; format: in vivo, Chenopodium album
Outline: as §3

[14] = system: morningglory; assay: Test B pre-/postemergence herbicide test; format: in vivo, Ipomoea coccinea
Outline: as §2

[15] = system: pigweed; assay: Test B pre-/postemergence herbicide test; format: in vivo, Amaranthus retroflexus
Outline: as §3

[16] = system: rice; assay: Test B pre-/postemergence herbicide test; format: in vivo, Oryza sativa; conditions: preemergence
Outline: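 Evaluation is visual, comparing treated with control plants on a scale where 0 means no effect and 100 means full control. Treatments were preemergence, or postemergence on seedlings 2–18 cm tall, and held 13–15 days in the greenhouse.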

[17] = system: velvetleaf; assay: Test B pre-/postemergence herbicide test; format: in vivo, Abutilon theophrasti
Outline: as §3

[18] = system: blackgrass; assay: Test B postemergence herbicide test; format: in vivo, Alopecurus myosuroides; conditions: scale 0 (no effect) to 100 (complete control)
Outline: (§4)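 Paddy species grown to the 2-leaf stage under flooding; blackgrass sprayed postemergence at 2–18 cm (1- to 4-leaf stage). Plants kept in a greenhouse for 13 to 15 days, then visually rated against controls on 0 (no effect) to 100 (complete control).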

[19] = system: wheat; assay: Test B postemergence herbicide test; format: in vivo, Triticum aestivum; design: key to Wheat plant response rating: 0 = no effect, 100 = complete control; conditions: scale 0 (no effect) to 100 (complete control)
Outline: (§5)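 Read-out: visual comparison with controls, scored 0 to 100, where 100 means complete control and 0 no effect. Formulated chemicals were applied postemergence to plants 2–18 cm tall (1- to 4-leaf), or to flooded-paddy plants at the 2-leaf stage, then held 13 to 15 days under glass.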

[20] = system: wild oat; assay: Test B postemergence herbicide test; format: in vivo, Avena fatua; conditions: scale 0 (no effect) to 100 (complete control)
Outline: as §5

[21] = system: rice; assay: Test B flooded paddy test; format: in vivo, Oryza sativa; conditions: 1000 g ai/ha, visual rating, scale 0 to 100 (0 no effect, 100 complete control), 13 to 15 days
Outline: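 After treating 2-leaf paddy plants or 2–18 cm postemergence plants (1 to 4 leaves) with formulated chemical, researchers kept them in a greenhouse for 13–15 days. Effects were judged visually versus controls: 0 indicates none, 100 total control.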

[22] = system: small flower umbrella sedge; assay: Test B flooded paddy test; format: in vivo, Cyperus difformis; conditions: 1000 g ai/ha, visual rating, scale 0 to 100 (0 no effect, 100 complete control), 13 to 15 days
Outline: as §4

[23] = system: ducksalad; assay: Test B flooded paddy test; format: in vivo, Heteranthera limosa; conditions: 1000 g ai/ha, visual rating, scale 0 to 100 (0 no effect, 100 complete control), 13 to 15 days
Outline: as §4

[24] = system: barnyardgrass; assay: Test B flooded paddy test; format: in vivo, Echinochloa crus-galli; conditions: 1000 g ai/ha, visual rating, scale 0 to 100 (0 no effect, 100 complete control), 13 to 15 days
Outline: as §4

[25] = Postemergence, 500 g ai/ha, 0 to 100 scale, 0 no effect, 100 complete control
[26] = Postemergence, 2000 g ai/ha, 0 to 100 scale, 0 no effect, 100 complete control
[27] = Preemergence, 500 g ai/ha, visual rating, 0 to 100 scale (0 no effect, 100 complete control)
[28] = Preemergence, 2000 g ai/ha, visual rating, 0 to 100 scale (0 no effect, 100 complete control)
[29] = 500 g ai/ha, visual rating 0-100, 0 no effect, 100 complete control, preemergence
[30] = Postemergence, 500 g ai/ha, visual rating after 13 to 15 days, scale 0 (no effect) to 100 (complete control)
[31] = postemergence, 125 g ai/ha, visual rating, scale 0 (no effect) to 100 (complete control)
[32] = preemergence, 125 g ai/ha, 0 to 100 scale, 0 is no effect, 100 is complete control
[33] = Postemergence, 500 g ai/ha, visual rating after 13 to 15 days
[34] = postemergence, 125 g ai/ha, visual rating

CCn1nc(C(C)(C)C)cc1C(=O)Nc1cccc(C(=O)OC(C)(C)C)c1 [Compound 98]
Barnyardgrass plant response rating [1, 25]: 0
Plant response rating, Barnyardgrass [1, 26]: 0
Barnyardgrass plant response rating [1, 27]: 0
Barnyardgrass plant response rating [1, 28]: 0
Crabgrass, Large plant response rating [2, 25]: 0
Plant response rating, Crabgrass, Large [2, 26]: 0
Crabgrass, Large plant response rating [2, 27]: 0
Crabgrass, Large plant response rating [2, 28]: 0
Foxtail, Giant plant response rating [3, 25]: 0
Plant response rating, Foxtail, Giant [3, 26]: 0
Foxtail, Giant plant response rating [3, 27]: 0
Foxtail, Giant plant response rating [3, 28]: 0
Morningglory plant response rating [4, 25]: 0
Plant response rating, Morningglory [4, 26]: 0
Morningglory plant response rating [4, 27]: 0
Morningglory plant response rating [4, 28]: 0
Pigweed plant response rating [5, 25]: 5
Plant response rating, Pigweed [5, 26]: 10
Pigweed plant response rating [5, 27]: 0
Pigweed plant response rating [5, 28]: 0
Velvetleaf plant response rating [6, 25]: 0
Plant response rating, Velvetleaf [6, 26]: 5
Velvetleaf plant response rating [6, 27]: 0
Velvetleaf plant response rating [6, 28]: 0
Plant response rating, Barnyardgrass [7, 29]: 0
Plant response rating, Barnyardgrass [7, 30]: 10
Barnyardgrass plant response rating [7, 31]: 10
Plant response rating, Barnyardgrass [7, 32]: 0
Plant response rating, Surinam Grass [8, 29]: 0
Plant response rating, Surinam Grass [8, 30]: 20
Surinam Grass plant response rating [8, 31]: 10
Plant response rating, Surinam Grass [8, 32]: 0
Plant response rating, Cocklebur [9, 29]: 0
Plant response rating, Cocklebur [9, 30]: 20
Cocklebur plant response rating [9, 31]: 0
Plant response rating, Cocklebur [9, 32]: 0
Plant response rating, Corn [10, 29]: 0
Plant response rating, Corn [10, 30]: 10
Corn plant response rating [10, 31]: 10
Plant response rating, Corn [10, 32]: 0
Plant response rating, Crabgrass, Large [11, 29]: 0
Plant response rating, Crabgrass, Large [11, 30]: 20
Crabgrass, Large plant response rating [11, 31]: 20
Plant response rating, Crabgrass, Large [11, 32]: 0
Plant response rating, Foxtail, Giant [12, 29]: 0
Plant response rating, Foxtail, Giant [12, 30]: 10
Foxtail, Giant plant response rating [12, 31]: 10
Plant response rating, Foxtail, Giant [12, 32]: 0
Plant response rating, Lambsquarters [13, 29]: 0
Plant response rating, Lambsquarters [13, 30]: 30
Lambsquarters plant response rating [13, 31]: 20
Plant response rating, Lambsquarters [13, 32]: 0
Plant response rating, Morningglory [14, 29]: 0
Plant response rating, Morningglory [14, 30]: 20
Morningglory plant response rating [14, 31]: 0
Plant response rating, Morningglory [14, 32]: 0
Plant response rating, Pigweed [15, 29]: 0
Plant response rating, Pigweed [15, 30]: 30
Pigweed plant response rating [15, 31]: 10
Plant response rating, Pigweed [15, 32]: 0
Plant response rating, Rice ([16]; 500 g ai/ha, visual rating 0-100, 0 no effect, 100 complete control): 0
Plant response rating, Rice ([16]; 125 g ai/ha, 0 to 100 scale, 0 is no effect, 100 is complete control): 0
Plant response rating, Velvetleaf [17, 29]: 0
Plant response rating, Velvetleaf [17, 30]: 10
Velvetleaf plant response rating [17, 31]: 10
Plant response rating, Velvetleaf [17, 32]: 0
Plant response rating, Blackgrass [18, 33]: 0
Blackgrass plant response rating [18, 34]: 0
Plant response rating, Wheat [19, 33]: 0
Wheat plant response rating [19, 34]: 0
Plant response rating, Oat, Wild [20, 33]: 10
Oat, Wild plant response rating [20, 34]: 0
Rice plant response rating [21]: 0
Sedge, Umbrella plant response rating [22]: 0
Ducksalad plant response rating [23]: 0
Barnyardgrass plant response rating [24]: 0
